Results taken from paper PMC9304066, “H2S biogenesis by cystathionine beta-synthase: mechanism of inhibition by aminooxyacetic acid and unexpected role of serine” (Cellular and Molecular Life Sciences: CMLS, 2022).
Where “and” joins values, the source holds several entries; their conditions need not be identical. Equal values may be shown once.

Legend:
tScCBS [1] = biological target: T1, tScCBS (Saccharomyces cerevisiae, UniProt P32582); assay: Kinetics of AOAA binding to tScCBS and displacement by substrate, followed by absorption spectra
T1 construct: 6xHis (C); made in house
T1 sequence (P32582 1-345): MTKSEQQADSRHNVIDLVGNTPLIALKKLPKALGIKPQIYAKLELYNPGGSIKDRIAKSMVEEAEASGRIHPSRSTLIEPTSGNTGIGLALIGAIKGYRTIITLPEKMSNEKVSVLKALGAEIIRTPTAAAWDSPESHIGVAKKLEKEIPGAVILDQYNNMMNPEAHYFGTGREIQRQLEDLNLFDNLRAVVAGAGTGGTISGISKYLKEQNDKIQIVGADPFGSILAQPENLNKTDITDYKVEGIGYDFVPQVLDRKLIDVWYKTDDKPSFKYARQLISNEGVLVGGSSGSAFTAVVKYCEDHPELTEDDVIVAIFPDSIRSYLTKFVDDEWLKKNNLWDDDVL
Protocol: (§1) UV − Vis and fluorescence spectroscopy. Absorption spectra were collected on a Tecan Infinite M200 Pro spectrophotometer in a buffer containing 50 mM Tris–HCl pH 8.5, 20 mM NaCl and 0.5 mM tris(2-carboxyethyl)phosphine (TCEP). All the spectra were carried out with a protein concentration of 1 mg/mL with a 1 cm path-length quartz cuvette in a total volume of 150 µL. tScCBS was titrated directly in a cuvette by successive additions of different concentrations of AOAA, Ser and Cys, respectively, and spectra were recorded between 240 and 600 nm after an incubation time of 3 min at RT. Fluorescence emission spectra were collected under the same conditions upon PLP excitation at 410 nm. Blank spectra were subtracted from sample spectra.
Fig. 2 Spectroscopic rescue of AOAA-inhibited tScCBS by Ser. A Changes in the absorption spectra of tScCBS upon addition of 20 µM AOAA (cyan lines) followed for 1 h. Subsequently, 1 mM Ser (gray lines) was added and spectral changes were followed for additional 1 h. B Representative kinetic fitting of AOAA binding to tScCBS followed at 412 nm. C Representative kinetic fitting of AOAA displacement from tScCBS by Ser by following changes at 370 nm and 460 nm. The kinetic parameters of the observed processes are shown as insets in panels B and C. Far-UV (D) and near-UV (E) CD spectra of tScCBS (black), tScCBS complexed with 20 µM AOAA (cyan) or 1 mM Ser (magenta) and tScCBS complexed with 20 µM AOAA followed by 1 h incubation with 1 mM Ser (green).

HEK293 cells [2] = assay: Cell proliferation (BrdU); format: cell-based, human; conditions: Ser concentrations above 3 mM, 'up to'
Protocol: (§2) Cell culture. The human embryonic kidney cell line HEK293 (ATCC CRL-1573) was cultured in Dulbecco’s Modified Eagle Medium (DMEM) containing 4.5 g/L glucose. The culture medium was supplemented with 10% (v/v) heat-inactivated fetal bovine serum, 2 mM Glutamax, non-essential amino acids, 100 U/ml penicillin and 100 μg/ml streptomycin. Cells were grown in a humidified incubator at 37 °C and 5% CO2 atmosphere. Cell viability and proliferation were assessed using MTT and BrdU assay, respectively, essentially as described previously.

tScCBS [3] = biological target: T1, tScCBS; assay: UV-Vis absorption titration of tScCBS (dissociation constants); format: binding; conditions: tScCBS 1 mg/mL, pH 8.5; decrease in absorbance at 412 nm (AOAA), increase at 460 nm (Ser) or 440 nm (Cys); 3 min incubation; read-out: Dissociation constant Kd (UV-Vis absorption)
Protocol: CBS enzymes. Recombinant truncated Saccharomyces cerevisiae CBS lacking the C-terminal regulatory domain (residues 346–507) and carrying the C-terminal 6xHis tag (tScCBS) was prepared as described previously. Engineered recombinant Homo sapiens CBS lacking a loop protruding from the central β-strand of the CBS2 domain corresponding to the residues 516–525 (HsCBS; described in detail in [21]) was purchased from GenScript.
as §1

HEK293 cells [4] = assay: Bioenergetic analysis (Seahorse XFe24 flux analyzer); format: cell-based, human
Protocol: Bioenergetic analysis. The Seahorse XFe24 flux analyzer (Agilent Technologies, Santa Clara, CA, USA) was used to estimate mitochondrial respiration of HEK293 cells. Cells were seeded in Seahorse XFe24 Cell Culture Microplates at density of 15,000 cells/well in a total volume of 200 µl, incubated for 2 h, followed by treatment for 24 h as described above for H2S live imaging. Next day, culture medium was replaced for Seahorse XF DMEM supplemented with 2 mM glutamine, 1 mM pyruvate and 10 mM glucose. The microplate was then incubated in a CO2-free incubator at 37°C for 1 h, to allow temperature and pH equilibration, as recommended by the manufacturer. The assay protocol included two measurements of basal values of oxygen consumption rate (OCR), followed by the injection of 1 µM oligomycin, used to evaluate ATP generation rate. Subsequently, the mitochondrial oxidative phosphorylation uncoupler FCCP (0.2 µM) was added to estimate maximal mitochondrial respiratory capacity. Lastly, 0.5 µM of rotenone and antimycin A (each) were injected to inhibit the electron flux through the complex I and III, respectively, aiming to detect the extra-mitochondrial OCR. Data were analyzed with Wave package (version 2.6; Agilent Technologies, Santa Clara, CA, USA) and GraphPad Prism 8 (GraphPad Software Inc.; San Diego, CA, USA).

HEK293 cells [5] = assay: Cell viability (MTT); format: cell-based, human; conditions: Ser 0.15–10 mM
Protocol: as §2

tScCBS [6] = biological target: T1, tScCBS; assay: CBL-LDH coupled-coupled CBS assay, tScCBS; format: biochemical
Protocol: CBS coupled-coupled assay. CBS canonical activity utilizing Ser and Hcy was determined using cystathionine beta-lyase (CBL) and lactate-dehydrogenase (LDH) coupled-coupled assay as described previously with a few modifications. Native L-LDH from rabbit muscle was purchased from Sigma (catalog no. L2500) and recombinant CBL was purchased from Creative Enzymes (catalog no. NATE-1146). In a final volume of 150 µL, the reaction mixture contained 50 mM Tris–HCl pH 8.9, 20 µM PLP, 500 µM NADH, 1.3 µM LDH, 0.1 µM CBL, 0–20 mM Ser (or 0–50 mM Cys) and 500 ng of tScCBS or HsCBS. Assays with HsCBS were carried out in the absence or presence of 500 µM CBS allosteric activator S-adenosylmethionine (SAM). The reaction was triggered by the addition of 2 mM Hcy and the oxidation of NADH to NAD^+ was followed by monitoring the decrease in absorbance at 340 nm over time (ε340 = 6220 M^−1.cm^−1). […] All measurements were performed in triplicates using Tecan Infinite 200 PRO microplate reader. Kinetic data were analyzed using GraphPad Prism software.

Rate constant k of AOAA displacement from tScCBS by Ser (tScCBS [1]; 1 mM Ser added after 1 h with 20 µM AOAA, changes at 370 nm and 460 nm)	Slower formation of PLP-aminoacrylate intermediate compared with PLP-AOAA oxime formation (tScCBS [1]; 1 mM Ser after 20 µM AOAA)	Structure (SMILES)	Increase of cellular proliferation (HEK293 cells [2])	Kd (tScCBS [3])	Impact on mitochondrial function (HEK293 cells [4]; HEK293, 1, 3 and 10 mM Ser alone, 24 h)	Cellular bioenergetics compared to untreated controls (HEK293 cells [4]; HEK293 inhibited by 150 µM AOAA, supplemented with 1, 3 or 10 mM Ser)	Cell viability (HEK293 cells [5])	Reduction of activity catalyzing condensation of Cys and Hcy yielding H2S (tScCBS [6]; AOAA-inhibited tScCBS (200 µM AOAA))	Effect on condensation of Ser and Hcy (canonical reaction) (tScCBS [6]; tScCBS inhibited by 200 µM AOAA, 5 mM Ser + 2 mM Hcy)	Rate constant k of PLP-AOAA oxime intermediate formation (tScCBS [1]; 20 µM AOAA added to tScCBS, followed at 412 nm)	Bioenergetics parameters (basal respiration, maximal respiration, ATP production) (HEK293 cells [4]; HEK293, 150 µM AOAA, 24 h)
0.07 ± 0.01 min⁻¹	approximately 3 ×	N[C@@H](CO)C(=O)O [Ser, serine]	~ 18%	~58 µM and 58.6 µM	did not have any significant impact	correction or normalization	did not affect				
		NOCC(=O)O [AOAA, aminooxyacetic acid]		~6 µM				85%	not impaired	0.22 min⁻¹ and 0.22 ± 0.05 min⁻¹	significant decrease
